This experiment deals with T1, human recombinant Yes [a.a. 2–543 (end)] (Homo sapiens, UniProt P07947).
T1 construct: human recombinant Yes [a.a; 2–543 (end)]; purchased BPS Bioscience 40488
Briefly: ADP-Glo kinase assay, inhibition rates of Yes phosphorylation activity (first and second screening). It counts as biochemical. As to conditions: 10 μmol L−1 compound; for First screening IR (inhibition rate): mean of n = 4 wells. In short, it runs like this:
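ADP-Glo luminescence measured inhibition of human recombinant Yes (a.a. 2–543) phosphorylation activity. In the first screen, each compound ran in 4 wells and inhibition rates were averaged. The second screen retested hits as compounds dissolved from fresh powder.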

T1 sequence (P07947 2-543): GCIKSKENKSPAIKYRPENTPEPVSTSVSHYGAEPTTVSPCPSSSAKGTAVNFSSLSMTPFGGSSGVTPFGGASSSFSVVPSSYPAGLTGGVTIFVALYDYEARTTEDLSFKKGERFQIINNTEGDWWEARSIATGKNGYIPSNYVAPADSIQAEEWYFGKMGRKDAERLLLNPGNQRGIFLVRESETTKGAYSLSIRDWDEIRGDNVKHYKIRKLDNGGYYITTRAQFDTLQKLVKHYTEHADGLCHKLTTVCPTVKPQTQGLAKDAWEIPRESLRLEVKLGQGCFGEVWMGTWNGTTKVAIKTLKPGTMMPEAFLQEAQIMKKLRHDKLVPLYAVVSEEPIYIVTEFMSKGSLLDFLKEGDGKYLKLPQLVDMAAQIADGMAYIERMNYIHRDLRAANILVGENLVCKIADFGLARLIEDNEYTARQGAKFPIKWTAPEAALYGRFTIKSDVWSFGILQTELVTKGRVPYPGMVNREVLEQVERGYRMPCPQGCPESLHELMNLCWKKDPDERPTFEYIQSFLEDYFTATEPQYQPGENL

As for `O=c1c2ccc(C(F)(F)F)cc2nc2n1CC/C2=C/c1cccnc1` [Compound Z45931417], the “First screening IR (inhibition rate)” value is on record as 0%.

Consider `O=C(O)c1c2c(nc3ccccc13)/C(=C\c1ccccc1)CCC2` [Compound Z46035726], for which the “First screening IR (inhibition rate)” value was -14%.

In the case of `CC(=O)Nc1ccc(/C=C2/CCCc3c2nc2ccccc2c3C(=O)O)cc1` [Compound Z46035730], the “First screening IR (inhibition rate)” value turned out to be 5%.

As to `COc1ccc(/C=C2/CCCc3c2nc2ccccc2c3C(=O)O)cc1` [Compound Z46035754], the “First screening IR (inhibition rate)” value stood at 9%.

For the molecule `O=C(O)c1c2c(nc3ccccc13)/C(=C\c1ccc(Cl)c(Cl)c1)CCC2` [Compound Z46035759], the “First screening IR (inhibition rate)” value is recorded as 0%.

Take `O=C(O)c1ccc(/C=C2/CCCc3c2nc2ccccc2c3C(=O)O)cc1` [Compound Z46035770]: the “First screening IR (inhibition rate)” value came to 1%.

For `COc1cccc(/C=C2\CCCc3c2nc2ccccc2c3C(=O)O)c1` [Compound Z46035772], the “First screening IR (inhibition rate)” value amounted to 11%.

Take `CCOc1cc(/C=C2/CCCc3c2nc2ccccc2c3C(=O)O)ccc1OC` [Compound Z46035916]: the “First screening IR (inhibition rate)” value is 51%. The “Second screening IR (inhibition rate)” value (second screening, dissolved from fresh powder, n = 4) is -8%.

Take `O=C(O)c1c2c(nc3ccccc13)/C(=C\c1ccc(O)c(Br)c1)CCC2` [Compound Z46036098]: the “First screening IR (inhibition rate)” value was -2%.

In the case of `O=C(/C=C/c1cn(-c2ccccc2)nc1-c1cccnc1)c1ccc(Cl)c([N+](=O)[O-])c1` [Compound Z46041361], the “First screening IR (inhibition rate)” value is on record as 19%.

As to `Cc1c(Nc2ccc(/C=C3/C(=O)Nc4ccc(Cl)cc43)cc2)c(=O)n(-c2ccccc2)n1C` [Compound Z46051719], the “First screening IR (inhibition rate)” value came out at 15%.

For the molecule `O=C1Nc2ccccc2/C1=C\c1c(Cl)nc2sccn12` [Compound Z46060818], the “First screening IR (inhibition rate)” value was determined as 24%.

As for `C(=C\c1nc2cc(-c3ccccc3)ccc2o1)/c1cccnc1` [Compound Z46080472], the “First screening IR (inhibition rate)” value was 11%.

On to `COc1cc(/C=C2/CC(C)Cc3c2nc2ccccc2c3C(=O)O)ccc1O` (centres unmarked) [Compound Z46107807], for which the “First screening IR (inhibition rate)” value is given as -4%.

`CC1C/C(=C/c2ccccc2[N+](=O)[O-])c2nc3ccccc3c(C(=O)O)c2C1` (centres unmarked) [Compound Z46107814]: the “First screening IR (inhibition rate)” value was 10%.

On to `COc1ccc(/C=C2/CC(C)Cc3c2nc2ccccc2c3C(=O)O)c(OC)c1` (centres unmarked) [Compound Z46107821], for which the “First screening IR (inhibition rate)” value is recorded as -10%.

On to `COc1ccccc1/C=C1\CC(C)Cc2c1nc1ccccc1c2C(=O)O` (centres unmarked) [Compound Z46107852], for which the “First screening IR (inhibition rate)” value is -1%.

In the case of `CC1C/C(=C/c2ccc(Cl)c([N+](=O)[O-])c2)c2nc3ccccc3c(C(=O)O)c2C1` (centres unmarked) [Compound Z46107857], the “First screening IR (inhibition rate)” value is recorded as 11%.

Take `Cc1ccccc1/C=C1/CC(C)Cc2c1nc1ccccc1c2C(=O)O` (centres unmarked) [Compound Z46107859]: the “First screening IR (inhibition rate)” value is -3%.

On to `CC1C/C(=C/c2ccc(C#N)cc2)c2nc3ccccc3c(C(=O)O)c2C1` (centres unmarked) [Compound Z46107862], for which the “First screening IR (inhibition rate)” value was -2%.

As to `CNc1ccc(/C=C2/CC(C)Cc3c2nc2ccccc2c3C(=O)O)cc1[N+](=O)[O-]` (centres unmarked) [Compound Z46108034], the “First screening IR (inhibition rate)” value amounted to 11%.

For the molecule `COc1cc(/C=C2/CC(C)Cc3c2nc2ccccc2c3C(=O)O)cc(Cl)c1O` (centres unmarked) [Compound Z46108144], the “First screening IR (inhibition rate)” value was 3%.

In the case of `CC(C)(C)C1C/C(=C/c2ccc3c(c2)OCO3)c2nc3ccccc3c(C(=O)O)c2C1` (centres unmarked) [Compound Z46108733], the “First screening IR (inhibition rate)” value is recorded as 8%.

With `CC(=O)Nc1ccc(/C=C2/CC(C(C)(C)C)Cc3c2nc2ccccc2c3C(=O)O)cc1` (centres unmarked) [Compound Z46108738], the “First screening IR (inhibition rate)” value was found to be 26%.

For the molecule `COC(=O)c1ccc(COc2ccc(/C=C3/CC(C(C)(C)C)Cc4c3nc3ccccc3c4C(=O)O)cc2OC)cc1` (centres unmarked) [Compound Z46108841], the “First screening IR (inhibition rate)” value is 15%.

For the origin of these results see publication PMC5607274, “An iterative compound screening contest method for identifying target protein inhibitors using the tyrosine-protein kinase Yes” (Scientific Reports, 2017).
